Measurements reported in article PMC6445170, “VEGFR-2 inhibitors and apoptosis inducers: synthesis and molecular design of new benzo[g]quinazolin bearing benzenesulfonamide moiety” (Journal of Enzyme Inhibition and Medicinal Chemistry, 2017).
pIC50: −log10 of the molar value.

The compounds below were run against T1, VEGFR-2 (Homo sapiens, UniProt P35968) (assay: AlphaScreen kinase assay, phosphotyrosine antibody). Settings: 5 min preincubation, room temperature; VEGFR-2 activity determined in MCF-7 cells.
T1 construct: gene KDR; not described; endogenous activity said to be determined in MCF-7 cells, but compounds were incubated with 'enzyme' (AlphaScreen)
T1 sequence (P35968 20-1356): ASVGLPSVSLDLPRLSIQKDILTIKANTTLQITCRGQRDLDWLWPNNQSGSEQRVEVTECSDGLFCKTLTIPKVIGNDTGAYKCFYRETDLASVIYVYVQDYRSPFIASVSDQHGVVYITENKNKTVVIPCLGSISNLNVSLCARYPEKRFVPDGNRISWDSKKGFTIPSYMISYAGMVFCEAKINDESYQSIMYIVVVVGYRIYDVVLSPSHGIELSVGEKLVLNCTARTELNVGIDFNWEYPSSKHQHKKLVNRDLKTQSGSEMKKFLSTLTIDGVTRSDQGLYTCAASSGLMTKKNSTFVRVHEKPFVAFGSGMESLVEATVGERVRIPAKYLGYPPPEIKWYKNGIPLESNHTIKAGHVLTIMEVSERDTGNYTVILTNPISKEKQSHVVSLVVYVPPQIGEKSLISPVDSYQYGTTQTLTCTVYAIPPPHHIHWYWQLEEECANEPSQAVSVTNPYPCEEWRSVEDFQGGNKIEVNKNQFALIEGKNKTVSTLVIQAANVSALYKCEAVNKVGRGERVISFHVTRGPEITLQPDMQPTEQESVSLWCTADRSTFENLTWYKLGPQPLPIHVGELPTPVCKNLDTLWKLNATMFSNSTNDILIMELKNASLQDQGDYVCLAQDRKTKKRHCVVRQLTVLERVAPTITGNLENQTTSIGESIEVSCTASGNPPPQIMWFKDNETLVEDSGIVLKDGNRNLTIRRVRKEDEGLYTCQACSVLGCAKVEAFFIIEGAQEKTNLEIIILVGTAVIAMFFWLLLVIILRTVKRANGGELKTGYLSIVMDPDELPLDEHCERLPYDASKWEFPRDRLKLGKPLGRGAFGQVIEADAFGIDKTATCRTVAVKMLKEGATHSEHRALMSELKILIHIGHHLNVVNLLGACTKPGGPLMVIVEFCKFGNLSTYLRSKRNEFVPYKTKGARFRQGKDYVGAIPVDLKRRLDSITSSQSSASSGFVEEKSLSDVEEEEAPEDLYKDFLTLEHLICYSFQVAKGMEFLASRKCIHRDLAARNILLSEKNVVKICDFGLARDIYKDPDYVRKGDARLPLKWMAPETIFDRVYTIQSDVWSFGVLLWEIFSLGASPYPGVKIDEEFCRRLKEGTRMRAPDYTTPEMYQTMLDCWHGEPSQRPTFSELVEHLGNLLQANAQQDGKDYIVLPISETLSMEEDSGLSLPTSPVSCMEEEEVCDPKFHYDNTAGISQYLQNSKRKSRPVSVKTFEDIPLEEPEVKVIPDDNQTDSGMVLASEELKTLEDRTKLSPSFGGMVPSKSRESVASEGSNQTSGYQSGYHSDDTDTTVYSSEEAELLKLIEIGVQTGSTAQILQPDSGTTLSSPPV
Assay type: cell-based
Source text: AlphaScreen kinase assay, phosphotyrosine antibody on VEGFR-2

Row | SMILES | % Inhibition of VEGFR-2 enzyme [%]
1 | Cc1ccc(C)c(C=NNC(=O)CSc2nc3cc4ccccc4cc3c(=O)n2-c2ccc(S(N)(=O)=O)cc2)c1 [compound 6, 4-(2-(2-(2-(2,5-Dimethylbenzylidene)hydrazinyl)-2-oxoethylthio)-4-oxobenzo[g]quinazolin-3(4H)-yl)benzenesulfonamide] | 69.95
2 | NS(=O)(=O)c1ccc(-n2c(SCC(=O)NN=Cc3ccc(Br)cc3)nc3cc4ccccc4cc3c2=O)cc1 [compound 10, 4-(2-(2-(2-(4-Bromobenzylidene)hydrazinyl)-2-oxoethylthio)-4-oxobenzo[g]quinazolin-3(4H)-yl)benzenesulfonamide] | 64.89
3 | NS(=O)(=O)c1ccc(-n2c(SCC(=O)NN=Cc3ccc4c(c3)OCO4)nc3cc4ccccc4cc3c2=O)cc1 [compound 11, 4-(2-(2-(2-(Benzo[d][1,3]dioxol-5-ylmethylene)hydrazinyl)-2-oxoethylthio)-4-oxobenzo[g]quinazolin-3(4H)-yl)benzenesulfonamide] | 71.29
4 | NNC(=O)CSc1nc2cc3ccccc3cc2c(=O)n1-c1ccc(S(N)(=O)=O)cc1 [compound 5, 4-(2-(2-Hydrazinyl-2-oxoethylthio)-4-oxobenzo[g]quinazolin-3(4H)-yl)benzenesulfonamide] | 68.44

Same assay, conditions: 5 min preincubation, room temperature; VEGFR-2 activity determined in MCF-7 cells; inhibitor concentration not stated

Row | SMILES | % Inhibition of VEGFR-2 enzyme [%]
5 | Cc1ccc(C=NNC(=O)CSc2nc3cc4ccccc4cc3c(=O)n2-c2ccc(S(N)(=O)=O)cc2)cc1F [compound 7, 4-(2-(2-(2-(3-Fluoro-4-methylbenzylidene)hydrazinyl)-2-oxoethylthio)-4-oxobenzo[g]quinazolin-3(4H)-yl)benzenesulfonamide] | 72.19

Same assay, conditions: 5 min preincubation, room temperature; VEGFR-2 activity determined in MCF-7 cells; read-out: IC50 on VEGFR-2 enzyme (μm)

Row | SMILES | pIC50
6 | Cc1nn(C(=O)CSc2nc3cc4ccccc4cc3c(=O)n2-c2ccc(S(N)(=O)=O)cc2)c(N)c1C#N [compound 23, 4-(2-(2-(5-Amino-4-cyano-3-methyl-1H-pyrazol-1-yl)-2-oxoethylthio)-4-oxobenzo[g]quinazo-lin-3(4H)-yl) benzenesulfonamide] | 5.98
7 | NS(=O)(=O)c1ccc(-n2c(SCC(=O)NN=Cc3ccc(Cl)cc3Cl)nc3cc4ccccc4cc3c2=O)cc1 [compound 9, 4-(2-(2-(2-(2,4-Dichlorobenzylidene)hydrazinyl)-2-oxoethylthio)-4-oxobenzo[g]-quinazolin-3(4H)-yl)benzenesulfonamide] | 6.19
8 | CCOC(=O)c1cnn(C(=O)CSc2nc3cc4ccccc4cc3c(=O)n2-c2ccc(S(N)(=O)=O)cc2)c1N [compound 22, Ethyl 5-amino-1-(2-(4-oxo-3-(4-sulfamoylphenyl)-3,4-dihydrobenzo[g]quinazolin-2-ylthio)acetyl)-1H-pyrazole-4-carboxylate] | 6.08
9 | NS(=O)(=O)c1ccc(-n2c(SCC(=O)N3NC(=O)CC3=O)nc3cc4ccccc4cc3c2=O)cc1 [compound 20, 4-(2-(2-(3,5-Dioxopyrazolidin-1-yl)-2-oxoethylthio)-4-oxobenzo[g]quinazolin-3(4H)-yl) benzenesulfonamide] | 6.07
